Data as given in ChEMBL document CHEMBL1201862, “PubChem BioAssay data set” (2004).
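Each compound was tested at five concentrations against cells in 96-well plates for 48 hours. GI50 = concentration required for 50% inhibition of growth.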 The source made the active and inactive calls. No stated cut-off is given here; in the data, active = GI50 up to about 1.1 µM and inactive = higher.

Tests used:
Experiment in all cases: growth of human tumour cells (NCI), 48 h
[1] = test system: Hs-578T
[2] = test system: HCT-116
[3] = test system: OVCAR-3
[4] = test system: SF-268
[5] = test system: IGROV-1
[6] = test system: SK-MEL-2
[7] = test system: COLO 205
[8] = test system: SF-539
[9] = test system: A549
[10] = test system: MDA-MB-435
[11] = test system: UACC-257
[12] = test system: RPMI-8226
[13] = test system: SF-295
[14] = test system: HCT-15
[15] = test system: SK-MEL-28
[16] = test system: NCI-H23
[17] = test system: BT-549
[18] = test system: HOP-92
[19] = test system: NCI-H226
[20] = test system: HL-60
[21] = test system: M14
[22] = test system: MCF7
[23] = test system: Malme-3M
[24] = test system: TK-10
[25] = test system: K562
[26] = test system: 786-0
[27] = test system: ACHN
[28] = test system: RXF 393
[29] = test system: SN12C
[30] = test system: SK-MEL-5
[31] = test system: OVCAR-8
[32] = test system: U-251
[33] = test system: SNB-75
[34] = test system: NCI/ADR-RES
[35] = test system: HCC 2998
[36] = test system: UO-31
[37] = test system: SR
[38] = test system: SNB-19
[39] = test system: SW-620
[40] = test system: OVCAR-4
[41] = test system: OVCAR-5
[42] = test system: LOX IMVI
[43] = test system: MDA-N
[44] = test system: UACC-62
[45] = test system: SK-OV-3
[46] = test system: T47D
[47] = test system: HT-29
[48] = test system: DU-145
[49] = test system: CAKI-1
[50] = test system: HOP-62
[51] = test system: MDA-MB-231
[52] = test system: EKVX
[53] = test system: CCRF-CEM
[54] = test system: NCI-H460
[55] = test system: KM12
[56] = test system: MOLT-4
[57] = test system: PC-3

Compound: CC(C)(C)NC1=NC(C(F)(F)F)(C(F)(F)F)NC(=O)N1
- GI50 [1]: 58.2 µM (inactive)
- GI50 [2]: 38.9 µM (inactive)
- GI50 [3]: 77.4 µM (inactive)
- GI50 [4]: > 100 µM (inactive)
- GI50 [5]: 64.1 µM (inactive)
- GI50 [6]: 65.2 µM (inactive)
- GI50 [7]: > 10 µM (inactive)
- GI50 [8]: > 100 µM (inactive)
- GI50 [9]: 35.1 µM (inactive)
- GI50 [10]: 37.1 µM (inactive)
- GI50 [11]: 54.2 µM (inactive)
- GI50 [12]: 36.9 µM (inactive)
- GI50 [13]: 39.7 µM (inactive)
- GI50 [14]: 57 µM
- GI50 [15]: 32.7 µM (inactive)
- GI50 [16]: > 100 µM (inactive)
- GI50 [17]: 16.9 µM (inactive)
- GI50 [18]: 20 µM (inactive)
- GI50 [19]: > 100 µM (inactive)
- GI50 [20]: 16.5 µM (inactive)
- GI50 [21]: 44.5 µM (inactive)
- GI50 [22]: 37.8 µM (inactive)
- GI50 [23]: 34.4 µM (inactive)
- GI50 [24]: 67.8 µM (inactive)
- GI50 [25]: 30.7 µM (inactive)
- GI50 [26]: 52.4 µM (inactive)
- GI50 [27]: 39.7 µM (inactive)
- GI50 [28]: > 100 µM (inactive)
- GI50 [29]: 54.7 µM (inactive)
- GI50 [30]: 24.8 µM (inactive)
- GI50 [31]: 80.4 µM (inactive)
- GI50 [32]: 70.3 µM (inactive)
- GI50 [33]: 75.2 µM (inactive)
- GI50 [34]: 61 µM (inactive)
- GI50 [35]: 27.4 µM (inactive)
- GI50 [36]: 53.6 µM (inactive)
- GI50 [37]: 37 µM (inactive)
- GI50 [38]: 67.3 µM (inactive)
- GI50 [39]: > 100 µM (inactive)
- GI50 [40]: 36.3 µM (inactive)
- GI50 [41]: > 100 µM (inactive)
- GI50 [42]: 53 µM (inactive)
- GI50 [43]: 49.2 µM (inactive)
- GI50 [44]: 54.6 µM (inactive)
- GI50 [45]: > 100 µM (inactive)
- GI50 [46]: 28.3 µM (inactive)
- GI50 [47]: 36.9 µM (inactive)
- GI50 [48]: > 100 µM (inactive)
- GI50 [49]: 46.1 µM (inactive)
- GI50 [50]: > 100 µM (inactive)
- GI50 [51]: 77.1 µM (inactive)
- GI50 [52]: 84.1 µM (inactive)
- GI50 [53]: 31.2 µM (inactive)
- GI50 [54]: 47.4 µM (inactive)
- GI50 [55]: 68.4 µM (inactive)
- GI50 [56]: 30.2 µM (inactive)
- GI50 [57]: 34.8 µM (inactive)

Compound: Cc1cc(NS(=O)(=O)c2ccc(NC(NC(=O)C(C(F)(F)F)C(F)(F)F)(C(F)(F)F)C(F)(F)F)cc2)no1
- GI50 [1]: > 100 µM (inactive)
- GI50 [2]: > 100 µM (inactive)
- GI50 [3]: > 100 µM (inactive)
- GI50 [4]: > 100 µM (inactive)
- GI50 [5]: > 100 µM (inactive)
- GI50 [6]: > 100 µM (inactive)
- GI50 [7]: > 100 µM (inactive)
- GI50 [8]: > 100 µM (inactive)
- GI50 [9]: > 100 µM (inactive)
- GI50 [10]: > 100 µM (inactive)
- GI50 [11]: > 100 µM (inactive)
- GI50 [12]: > 100 µM (inactive)
- GI50 [13]: > 100 µM (inactive)
- GI50 [14]: > 100 µM
- GI50 [15]: > 100 µM (inactive)
- GI50 [16]: > 100 µM (inactive)
- GI50 [17]: > 100 µM (inactive)
- GI50 [18]: > 100 µM (inactive)
- GI50 [19]: > 100 µM (inactive)
- GI50 [20]: > 100 µM (inactive)
- GI50 [21]: 58.7 µM (inactive)
- GI50 [22]: > 100 µM (inactive)
- GI50 [23]: > 100 µM (inactive)
- GI50 [24]: > 100 µM (inactive)
- GI50 [25]: > 100 µM (inactive)
- GI50 [26]: > 100 µM (inactive)
- GI50 [27]: > 100 µM (inactive)
- GI50 [28]: > 100 µM (inactive)
- GI50 [29]: > 100 µM (inactive)
- GI50 [30]: > 100 µM (inactive)
- GI50 [31]: > 100 µM (inactive)
- GI50 [32]: > 100 µM (inactive)
- GI50 [33]: > 100 µM (inactive)
- GI50 [34]: > 100 µM (inactive)
- GI50 [35]: > 100 µM (inactive)
- GI50 [36]: > 100 µM (inactive)
- GI50 [37]: > 100 µM (inactive)
- GI50 [38]: > 100 µM (inactive)
- GI50 [39]: > 100 µM (inactive)
- GI50 [40]: > 100 µM (inactive)
- GI50 [41]: > 100 µM (inactive)
- GI50 [42]: > 100 µM (inactive)
- GI50 [43]: > 100 µM (inactive)
- GI50 [44]: > 100 µM (inactive)
- GI50 [45]: 1.96 µM (inactive)
- GI50 [46]: > 100 µM (inactive)
- GI50 [47]: > 100 µM (inactive)
- GI50 [48]: > 100 µM (inactive)
- GI50 [49]: > 100 µM (inactive)
- GI50 [50]: > 100 µM (inactive)
- GI50 [51]: > 100 µM (inactive)
- GI50 [52]: > 100 µM (inactive)
- GI50 [53]: > 100 µM (inactive)
- GI50 [54]: > 100 µM (inactive)
- GI50 [55]: > 100 µM (inactive)
- GI50 [56]: > 100 µM (inactive)
- GI50 [57]: > 100 µM (inactive)
